Source: ChEMBL document CHEMBL4219157, “Alkylated/aminated nitroimidazoles and nitroimidazole-7-chloroquinoline conjugates: Synthesis and anti-mycobacterial evaluation” (Bioorg Med Chem Lett, 2018)
Values after ≈ are worked out from the molar mass of the structure shown.

Legend:
[1] = Selectivity index, ratio of IC50 for mouse J774 cells to MIC50 for Mycobacterium tuberculosis mc2 6230; type: toxicity; details: read-out: Selectivity Index
J774 = test: Cytotoxicity against mouse J774 cells assessed as decrease in cell viability after 24 hrs by resazurin based assay; details: J774, 24 h
[2] = system: Mycobacterium tuberculosis; test: Antitubercular activity against Mycobacterium tuberculosis mc2 6230 after 7 days by broth microdilution assay; type: functional; details: mc2 6230, 168 h

Compound | selectivity ratio [1] | IC50 (J774) [µg/mL] | MIC50 [2] [µg/mL]
Cc1ncc([N+](=O)[O-])n1CCCN1CCCC1 | > 5.2 | > 100 | 19.3 (≈ 81 µM)
Cc1ncc([N+](=O)[O-])n1CCCCN1CCCCC1 | > 5.2 | > 100 | 19.3 (≈ 72.5 µM)
NNC(=O)c1ccncc1 [ISONIAZID] | – | – | 0.019 (≈ 0.139 µM)
Cc1ncc([N+](=O)[O-])n1CCCN1CCCCC1 | – | > 100 | > 100
Cc1ncc([N+](=O)[O-])n1CCCCCCBr | 14.1 | 69.9 (≈ 241 µM) | 4.9 (≈ 16.9 µM)
Cc1ncc([N+](=O)[O-])n1CCCCCN1CCOCC1 | – | > 100 | > 100
Cc1ncc([N+](=O)[O-])n1CCCCCN1CCCCC1 | > 2 | > 100 | 49 (≈ 175 µM)
Clc1ccc2c(N3CCNCC3)ccnc2c1 | – | – | 92 (≈ 371 µM)
Cc1ncc([N+](=O)[O-])n1CCCCCN1CCCC1 | > 8.1 | > 100 | 12.3 (≈ 46.2 µM)
Cc1ncc([N+](=O)[O-])n1CCCN1CCOCC1 | > 5.5 | > 100 | 18 (≈ 70.8 µM)
Cc1ncc([N+](=O)[O-])n1CCCBr | 10.3 | 54.8 (≈ 221 µM) | 5.3 (≈ 21.4 µM)
Cc1ncc([N+](=O)[O-])n1CCCCN1CCN(c2ccnc3cc(Cl)ccc23)CC1 | > 45.3 | > 100 | 2.2 (≈ 5.13 µM)
Cc1ncc([N+](=O)[O-])n1CCCN1CCN(c2ccnc3cc(Cl)ccc23)CC1 | > 26.3 | > 100 | 3.8 (≈ 9.16 µM)
Cc1ncc([N+](=O)[O-])n1CCCCCCN1CCN(c2ccnc3cc(Cl)ccc23)CC1 | < 0.66 | < 0.8 | 1.2 (≈ 2.63 µM)
Cc1ncc([N+](=O)[O-])n1CCCCBr | 3.4 | 61 (≈ 233 µM) | 17.7 (≈ 67.5 µM)
Cc1ncc([N+](=O)[O-])n1CCCCCN1CCN(c2ccnc3cc(Cl)ccc23)CC1 | 5.6 | 28.9 (≈ 65.2 µM) | 5.2 (≈ 11.7 µM)
Cc1ncc([N+](=O)[O-])n1CCCCCBr | 6.2 | 83 (≈ 301 µM) | 13.3 (≈ 48.2 µM)
Cc1ncc([N+](=O)[O-])n1CCCCN1CCOCC1 | > 4.3 | > 100 | 23.1 (≈ 86.1 µM)
Cc1ncc([N+](=O)[O-])n1CCCCN1CCCC1 | > 8 | > 100 | 12.6 (≈ 49.9 µM)
